Assay results published in PMC8893300, “A Dynamic Mass Redistribution Assay for the Human Sweet Taste Receptor Uncovers G-Protein Dependent Biased Ligands” (Frontiers in Pharmacology, 2022).
pEC50: −log10 of the molar value. Read-outs that look alike come from different tables or passages of the source.

How the values were obtained:
Type in all cases: cell-based
[1] = molecular target: T1, human sweet taste receptor (hT1R2/hT1R3) (Homo sapiens, UniProt Q7RTX0+Q8TE23); test: DMR assay (Epic reader) on R2/R3 U2OS cells, endogenous G proteins
T1 construct: expressed in transfected cells
T1 sequence (Q8TE23 20-839): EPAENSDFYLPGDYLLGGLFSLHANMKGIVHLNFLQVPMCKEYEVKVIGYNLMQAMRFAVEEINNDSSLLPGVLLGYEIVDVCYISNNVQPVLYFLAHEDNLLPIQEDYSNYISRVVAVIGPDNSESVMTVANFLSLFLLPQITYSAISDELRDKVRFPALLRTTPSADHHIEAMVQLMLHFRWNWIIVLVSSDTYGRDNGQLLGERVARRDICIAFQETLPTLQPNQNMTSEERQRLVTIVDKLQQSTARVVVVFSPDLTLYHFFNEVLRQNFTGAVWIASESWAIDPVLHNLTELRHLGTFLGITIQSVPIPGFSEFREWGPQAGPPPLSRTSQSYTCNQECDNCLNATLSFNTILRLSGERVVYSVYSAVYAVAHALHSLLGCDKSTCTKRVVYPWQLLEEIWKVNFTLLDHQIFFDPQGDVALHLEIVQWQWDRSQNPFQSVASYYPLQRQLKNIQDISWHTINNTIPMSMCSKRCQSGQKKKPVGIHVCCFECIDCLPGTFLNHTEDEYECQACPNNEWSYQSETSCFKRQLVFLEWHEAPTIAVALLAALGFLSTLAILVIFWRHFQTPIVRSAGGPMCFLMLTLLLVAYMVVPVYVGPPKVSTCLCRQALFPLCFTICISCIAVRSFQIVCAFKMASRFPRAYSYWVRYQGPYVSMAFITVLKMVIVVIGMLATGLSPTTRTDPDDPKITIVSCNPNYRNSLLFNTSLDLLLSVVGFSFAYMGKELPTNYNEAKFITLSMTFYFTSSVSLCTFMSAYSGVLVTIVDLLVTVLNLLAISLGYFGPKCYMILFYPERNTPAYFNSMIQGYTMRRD
T1 sequence (Q7RTX0 21-852): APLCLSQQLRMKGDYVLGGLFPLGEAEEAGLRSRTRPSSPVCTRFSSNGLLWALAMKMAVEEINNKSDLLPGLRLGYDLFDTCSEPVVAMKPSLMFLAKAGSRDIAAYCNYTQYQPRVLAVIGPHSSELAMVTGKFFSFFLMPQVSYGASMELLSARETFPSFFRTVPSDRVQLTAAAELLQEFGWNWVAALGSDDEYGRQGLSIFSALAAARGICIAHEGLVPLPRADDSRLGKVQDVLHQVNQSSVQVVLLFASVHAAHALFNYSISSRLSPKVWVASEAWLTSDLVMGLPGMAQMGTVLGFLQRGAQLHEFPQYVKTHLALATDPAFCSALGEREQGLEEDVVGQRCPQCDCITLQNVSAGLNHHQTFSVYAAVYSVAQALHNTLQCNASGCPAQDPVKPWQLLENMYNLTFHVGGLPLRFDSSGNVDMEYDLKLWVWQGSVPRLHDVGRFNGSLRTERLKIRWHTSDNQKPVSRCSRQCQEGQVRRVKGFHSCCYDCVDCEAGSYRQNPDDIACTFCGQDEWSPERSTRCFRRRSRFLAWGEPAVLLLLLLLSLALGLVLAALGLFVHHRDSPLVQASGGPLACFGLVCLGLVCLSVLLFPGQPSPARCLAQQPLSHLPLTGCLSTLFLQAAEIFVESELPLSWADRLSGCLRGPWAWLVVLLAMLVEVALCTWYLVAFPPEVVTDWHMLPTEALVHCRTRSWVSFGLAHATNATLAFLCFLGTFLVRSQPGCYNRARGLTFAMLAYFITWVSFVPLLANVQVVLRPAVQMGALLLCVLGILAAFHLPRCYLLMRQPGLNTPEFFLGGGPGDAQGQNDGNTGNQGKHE
Experimental: (§1) The plates were incubated in the tissue culture hood for 20 min to allow cells to settle evenly at the bottom of the microplate and further cultured at 37°C in an atmosphere of 5% CO2 for 18–24 h. The next day, the cells were subjected to functional analysis using DMR. […] When indicated, data for agonist dose-responses were normalized to data obtained with a maximum concentration of sucralose (1 mM) and then fitted and plotted using GraphPad Prism (San Diego, CA) and non-linear regression analysis.
(§2) This value, that we termed pEC50Ratio (sucralose) or pEC50R (sucralose), was calculated with EC50 values obtained in the two assay systems. This transformation also allowed determination of an average and a standard error for the pEC50R (sucralose). The two sets of data (DMR and FLIPR data) were then analyzed with an un-paired t-test (α = 0.05). To calculate relative efficacy bias between the two assays, we captured the top asymptote value from each activity-normalized dose-response curve, as provided by the curve fit, calculated an average and a standard deviation (sd) for each agonist and then analyzed the data pairs with an un-paired t-test (α = 0.05). […] The following steps were followed: 1) Using the PRISM software, we re-analyzed each ligand’s dose-response data obtained in each assay with non-linear regression and the users-defined equation “New Operational Model with TauKa ratios” and retrieved logR values from the fits. 2) Subtracted each ligand’s logR value with that of our standard, the sucralose logR value, obtained from the same data set (each ligand dose-response assay data used in this analysis was accompanied with a sucralose dose-response ran on the same day), producing the ΔlogR value for leach ligand in each assay. 3) Calculated the mean and SEM from ΔlogR replicates (from three to nine independent dose-response analysis, in the two different assays). 4) Calculated ΔΔlogR values by subtracting the averaged ligands’ ΔlogR FLIPR values with the averaged ligands’ ΔlogR DMR values.

[2] = tested on: parental U2OS cells; test: DMR assay on parental U2OS cells (receptor-independent responses); conditions: highest concentration of sucralose (≥2 mM)
Experimental: as §1, with “DMR. The lidded Epic® 384 microplate and polypropylene compound plate (Corning) were loaded into the carousel of the Epic® reader, the target plate was washed with DMSO matched D-PBS using the Corning Epic® Liquid Handling Accessory (LHA) and equilibrated in 25 μl of DMSO matched D-PBS for 90 min.” for “DMR.”

[3] = molecular target: T2, human sweet taste receptor (hT1R2/hT1R3) coupled to Gα15 (Homo sapiens, UniProt Q7RTX0+Q8TE23); test: FLIPR calcium mobilization assay, R2/R3 U2OS cells transduced with Gα15 baculovirus
T2 construct: expressed in transfected cells
T2 sequence (Q8TE23 20-839): T1 sequence (Q8TE23 20-839)
T2 sequence (Q7RTX0 21-852): T1 sequence (Q7RTX0 21-852)
Experimental: The Gα15 coding sequence was inserted in the HindIII-NotI sites and recombinant virus was generated using the Bac-to-Bac system (Life Technologies). Virus was further amplified by propagation in Sf9 cells grown in suspension using Sf900-II media. Virus titers were determined by plaque assay on Sf9 cells.
Cells were gently mixed with the virus at a multiplicity of infection (MOI) of 5. Using a multidrop, 70 μl per well of the cell and virus mixture was dispensed in a 384-well clear bottom plate (Fisher). After 24 h of incubation in a humidified 37°C tissue culture incubator, trichostatin A was added to a final concentration of 0.3 μM and the cells were incubated for another 18–24 h at 34°C. On the day of the experiment, cells were loaded with 4 μM of the calcium indicator Fluo-4 AM (Invitrogen) in D-PBS for 1 h at room temperature. After washing the cells with D-PBS using a cell washer (BioTek) and a 30-minute rest time, the cell plate and the compound plate were transferred into the FLIPR-Tetra (Molecular Devices). […] Loading and the FLIPR assay were run as described above. When indicated, data for agonist dose-responses were normalized to data obtained with a maximum concentration of sucralose (1 mM) and then fitted and plotted using GraphPad Prism (San Diego, CA) and non-linear regression analysis.
as §2

time of peak DMR response post-stimulation ([1]; R2/R3 U2OS cells): ~4 min
pEC50 ([1]; R2/R3 U2OS cells, peak DMR response, read-out: Activity in DMR assay EC50): 3.79
EC50 ([1]; R2/R3 U2OS cells, peak DMR response, read-out: Activity in DMR assay pEC50 (converted)): 150 µM
dose-response curve's top asymptote in the DMR assay ([1]; relative to response at 1 mM sucralose): around 122%
Activity in DMR assay Emax ([1]; top asymptote of dose-response normalized to 1 mM sucralose): 122
dose-response curve's top asymptote in the FLIPR assay ([3]; Gα15, relative to response at 1 mM sucralose): 104%
Activity in FLIPR assay Emax ([3]; Gα15, top asymptote of dose-response normalized to 1 mM sucralose): 104
pEC50 ([3]; R2/R3 U2OS cells expressing Gα15, read-out: Activity in FLIPR assay EC50): 4.14
EC50 ([3]; R2/R3 U2OS cells expressing Gα15, read-out: Activity in FLIPR assay pEC50 (converted)): 69.3 µM
Structure (SMILES): OC[C@H]1O[C@H](O[C@]2(CCl)O[C@H](CCl)[C@@H](O)[C@@H]2O)[C@H](O)[C@@H](O)[C@H]1Cl [Sucralose]
non-specific DMR effect on parental U2OS cells [2]: 20–40 pm
